Laboratory results taken from patent US20250027956A1, “Improved Gamma-Secretase Inhibitor Screening Assays” (VIB VZW, priority 2021, published 2025).

Key:
NPC disease models = settings: cited from earlier work
PSENdKO cells [1] = test: Confocal immunofluorescence (compartment size, Mander's colocalization, filipin) in PSENdKO cells; format: cell-based, mouse
Protocol: For OSW-1 (30310-1, Sanbio/Cayman Chemical), cells were treated overnight with 10 nM. Diluent treatment alone (in most cases DMSO, water for the cyclodextrin) was used as vehicle control. KO cell lines: PSEN1 and 2 KO cell lines (PSENdKO) cell lines were established as described in ([…] al 2020). Briefly, the web-based CRISPR design tool was used to select the sequence to be targeted in mouse PSEN1 and PSEN2 ([NT] and [NT], respectively). Oligo pairs encoding guide sequences (obtained from Integrated DNA Technologies, IDT) were annealed and ligated into the pX330 plasmid (Addgene) according to the Zhang's laboratory protocol (https://www.addgene.org/crispr/zhang/). MEF cells were then transfected with the pX330-PSEN1 and PX330-PSEN2, using Fugene HD (Promega), in accordance with the manufacturer protocol. Selection of PSENdKO clones was achieved through serial dilution and confirmed by WB analysis. Further depletion of APP in different PSENdKO clones was achieved through electroporation of RNP complexes. Single guide RNA (sgRNAs) were designed to either target exon 2 ([NT]) or exon 3 ([NT]). The Neon Transfection System (ThermoFisher Scientific, one pulse, 1650 V, 20 ms) was used to electroporate 150 000 cells with 10 pmol of Cas 9 (IDT) and 20 pmol of single guide RNA (IDT). As above, cells were amplified and selection of independent APPKO clones was performed with serial dilutions and WB characterization. All clones of interest were sequenced using Sanger sequencing. […] Primary antibodies diluted in the same blocking buffer were incubated overnight at 4° C. Following PBS washing steps, (goat- or donkey-) secondary antibodies conjugated with Alexa fluor dyes (Alexa 488, 568, or 647, all ThermoFisher Scientific) diluted in the blocking buffer were incubated for 1 h, RT. Coverslips were then mounted with Mowiol (Sigma). When cholesterol labelling was performed, fixed cells were treated with 200 μg·ml-1 filipin (F4767, Sigma) for 2 h at RT, prior to permeabilization. Acquisition: Z stack images (spacing 2 μm), or a median plan were acquired on a Nikon 1AR connected to an inverse Nikon Ti-2000 equipped with an oil-immersion plan APO 60× objective lenses with 1.40 NA. Data were collected using Nikon Imaging Software. […] Image analysis: All image analysis was done using Image J software (Schindelin et al 2012; Schneider et al 2012). To measure the area of the organelle of interest (early endosomes-EEA1; lysosomes-Lamp1; retromer-VPS35 . . . ), segmentation was realized using automatic thresholding. The following masks were used: Mean (EEA1), Ostu (Lamp1), Intermodes (VPS35). Overlap of signal of interests were quantified with Manders colocalisation index (Plugin Jacob, (Bolte and Cordelieres 2006)). When indicated, co-localization data was normalized to the reference group for multiple comparisons.

LE/Ly cholesterol = settings: cited from earlier work
WT MEFs = test: Lysosomal Ca2+ content, Fura-2AM loaded cells challenged with GPN, WT cells; format: cell-based, mouse
Protocol: Cells were treated with the following drugs, usually for 4 days, unless otherwise stated: DAPT (2634/10, Tocris) 1 μM final; Inhibitor X (565771-250 μg, Calbiochem/Merck) 1 μM final; β-Secretase Inhibitor IV (565788, Calbiochem/Merck) 2 μM final, (2-Hydroxypropyl)-γ-cyclodextrin (H125-5G-I, Sigma Aldrich) 1 mM final; Adam 10 inhibitor G1254023X (SML0789, Sigma Aldrich) 3 μM final. For OSW-1 (30310-1, Sanbio/Cayman Chemical), cells were treated overnight with 10 nM. Diluent treatment alone (in most cases DMSO, water for the cyclodextrin) was used as vehicle control.
Cytosolic response: Ca2+ responses were measured as previously described in Coen et al 2012. Briefly, cells (0.005 to 0.01×106) were seeded two to three days prior to the experiment on glass coverslips (631-0153, VWR). On the day of recording, cells were rinsed three times in Ringer solution (155 mM NaCl, 5 mM KCl, 2 mM MgCl2, 2 mM CaCl2, 10 mM Glucose, 10 mM HEPES, 2 mM NaH2PO4·2H20; pH 7.3), and loaded 1 μM Fura2-AM (F1221, ThermoFisher Scientific) for 30 min (RT). Cells were rinsed three times and left to equilibrate for at least 15-20 min (RT). All acquisitions were carried out in Ringer Ca2+ free solution (same as above, albeit the 2 mM CaCl2 were replaced by 2 mM EGTA). During experiments, cells were challenged with different drugs, such as Thapsigargin (T7459, ThermoFisher Scientific, 1 μM final), GPN (ab145914, abcam, 100 μM final for MEFs, 500 μM for neurons), MLSA1 (Cat. No. 4746, Tocris, 20 μM final) or lonomycin (10634, Sigma Aldrich, 1 μM final). Images were acquired every 5 sec for 8-10 min, using an Olympus IX81 using an UAPO/340 40× oil objective (1.35 NA), operated by CellR Software (Olympus). Recordings were done using 340 and 380 nm excitation, and 530 nm emission filters. Image processing was performed using Image J Software (Schindelin et al 2012; Schneider et al 2012). Briefly, cells were segmented manually and fluorescence intensities were measured over time. Fura-2 signals were corrected to obtain ΔF/F0 (F0 being the initial signal recorded). For each cell, the area under the curve, corresponding to the aforementioned stimulation, was measured using GraphPad Prism.

PSENdKO cells [2] = test: Lysosomal Ca2+ content, Fura-2AM loaded cells challenged with GPN, PSENdKO cells; format: cell-based, mouse; parameters: lysosomal Ca2+ content: dose or concentration left out as unconfirmed
Description: Diluent treatment alone (in most cases DMSO, water for the cyclodextrin) was used as vehicle control.
Briefly, the web-based CRISPR design tool was used to select the sequence to be targeted in mouse PSEN1 and PSEN2 (i.e. 5′-[…]-3′ and 5′-[…]-3′, respectively). Oligo pairs encoding guide sequences (obtained from Integrated DNA Technologies, IDT) were annealed and ligated into the pX330 plasmid (Addgene) according to the Zhang's laboratory protocol (https://www.addgene.org/crispr/zhang/). MEF cells were then transfected with the pX330-PSEN1 and PX330-PSEN2, using Fugene HD (Promega), in accordance with the manufacturer protocol. Selection of PSENdKO clones was achieved through serial dilution and confirmed by WB analysis. Further depletion of APP in different PSENdKO clones was achieved through electroporation of RNP complexes. […]
Cells were rinsed three times and left to equilibrate for at least 15-20 min (RT). […] Briefly, cells were segmented manually and fluorescence intensities were measured over time. Fura-2 signals were corrected to obtain ΔF/F0 (F0 being the initial signal recorded). For each cell, the area under the curve, corresponding to the aforementioned stimulation, was measured using GraphPad Prism.

Npc1 cats = settings: intrathecal 120 mg every 2 weeks; cited from earlier work
Npc1-null cells = settings: cited from earlier work
cats = settings: cited from earlier work
NPC patients = settings: clinical trials; cited from earlier work
Npc1 mice = settings: oral; cited from earlier work
[3] = overnight, 10 nM, data not shown

## CC(/C=C/C(=O)NO)=C\[C@@H](C)C(=O)c1ccc(N(C)C)cc1 [trichostatin A]
NPC disease models
  cholesterol accumulation: efficiently correct cholesterol accumulation

## Cc1ccc(NC(=O)c2ccc(CN3CCN(C)CC3)cc2)cc1Nc1nccc(-c2cccnc2)n1 [Imatinib]
PSENdKO cells [1]
  APP-CTFs in VPS35-positive organelles: significant decrease of APP-CTFs in VPS35-positive organelles
PSENdKO cells [1]; vs DMSO
  VPS35-LAMP1 co-localization: lowered VPS35-LAMP1 co-localization

## CC(C)c1cc(-c2n[nH]c(=O)n2-c2ccc3c(ccn3C)c2)c(O)cc1O [Ganetespib]
LE/Ly cholesterol
  clearance of cholesterol from LE/Ly: clearance of cholesterol from LE/Ly

## [O-][n+]1cccc(/C(Cl)=N/OC[C@H](O)CN2CCCCC2)c1 [arimoclomol]
LE/Ly cholesterol
  clearance of cholesterol from LE/Ly: same effect

## CO/C1=C\C(C)=C\[C@@H](C)[C@@H](O)[C@@H](C)C/C(C)=C/C=C/[C@H](OC)[C@@H]([C@@H](C)[C@@H](O)[C@H](C)[C@@]2(O)C[C@@H](O)[C@H](C)[C@@H](C(C)C)O2)OC1=O [bafilomycin1]
WT MEFs; full alkalinization, compared with PSENdKO cells
  lysosomal Ca2+ content: equally affected lysosomal Ca2+ content as observed in PSENdKO cells

## Nc1ccc(C(=O)Nc2cccc(-c3nc(N4CCOCC4)c4oc5ncccc5c4n3)c2)cn1 [YM201636]
WT MEFs; WT cells, 2 μM, 2 h, 100 μM GPN
  Lysosomal Ca2+ levels: reduced

## C=CCNC1=C2C[C@@H](C)C[C@H](OC)[C@H](O)[C@@H](C)/C=C(\C)[C@H](OC(N)=O)[C@@H](OC)/C=C\C=C(/C)C(=O)NC(=CC1=O)C2=O [17-AAG]
LE/Ly cholesterol
  clearance of cholesterol from LE/Ly: clearance of cholesterol from LE/Ly

## COc1ccc(C(=O)O[C@H]2[C@H](O[C@@H]3[C@@H](OC(C)=O)[C@H](O[C@H]4C[C@H]5[C@@H]6CC=C7C[C@@H](O)CC[C@]7(C)[C@H]6CC[C@]5(C)[C@@]4(O)[C@H](C)C(=O)CCC(C)C)OC[C@@H]3O)OC[C@@H](O)[C@@H]2O)cc1 [OSW-1]
PSENdKO cells [1]; [3]
  lysosomal cholesterol staining: did not decrease lysosomal cholesterol staining
PSENdKO cells [2]; [3]
  lysosomal Ca2+ dysfunction: nor did it rescue lysosomal Ca2+ dysfunction

## 2-Hydroxypropyl-beta-cyclodextrin [HP-beta-CD]
Npc1 cats
  neurological dysfunction and lipid accumulation in neurons: reduced neurological dysfunction and lipid accumulation in neurons

## CC(C)c1cc(C(=O)N2Cc3ccc(CN4CCN(C)CC4)cc3C2)c(O)cc1O [AT13387]
LE/Ly cholesterol
  clearance of cholesterol from LE/Ly: clearance of cholesterol from LE/Ly

## Cc1[nH]c2ccccc2c1CCNCc1ccc(/C=C/C(=O)NO)cc1 [LBH589]
NPC disease models
  cholesterol accumulation: efficiently correct cholesterol accumulation

## CCNC(=O)c1noc(-c2cc(C(C)C)c(O)cc2O)c1-c1ccc(CN2CCOCC2)cc1 [AUY922]
LE/Ly cholesterol
  clearance of cholesterol from LE/Ly: clearance of cholesterol from LE/Ly

## CCc1cc(C(N)=O)ccc1-n1nc(C(C)C)c2c(-n3cnc(-c4cnn(C)c4)c3)ccnc21 [TAS-116]
LE/Ly cholesterol
  clearance of cholesterol from LE/Ly: clearance of cholesterol from LE/Ly

## 2-hydroxypropyl-γ-cyclodextrin [HPγCD]
PSENdKO cells [1]; 1 mM, 4 days
  EEA1 area: reduced EEA1 area
  accumulation of membrane-tethered APP fragments in Lamp1-positive LE/Lys: strongly reduced
  colocalization of VPS35 with Lamp1: decreased colocalization of VPS35
  filipin staining in Lamp1-positive LE/Lys: Reduced filipin staining
PSENdKO cells [2]; 4 days
  lysosomal Ca2+ content: fully restored lysosomal Ca2+ content
Npc1-null cells
  intracellular free cholesterol levels and lysosome changes: reduce intracellular free cholesterol levels and normalize the lysosome changes

## CCCCN1C[C@H](O)[C@@H](O)[C@H](O)[C@H]1CO [Miglustat, N-butyl-deoxynojirimycin]
cats
  accumulation of gangliosides in the brain: reduced accumulation of gangliosides in the brain
  increase of lifespan: approximately 74%
  onset of neurological symptoms: delayed onset of neurological symptoms
NPC patients
  neurological outcome (e.g. dysphagia, supranuclear gaze palsy): neurological improvement or stabilization
Npc1 mice
  accumulation of gangliosides in the brain: reduced the accumulation of gangliosides in the brain
  increase of lifespan: approximately 33%
  neurological progression of the disease: slowed the neurological progression of the disease

## CC(C)C[C@H](NC(=O)[C@H](Cc1ccccc1)C[C@@H](O)[C@H](Cc1ccccc1)NC(=O)OC(C)(C)C)C(=O)N[C@@H](Cc1ccccc1)C(N)=O [InhibitorX]
WT MEFs; WT cells, 1 μM, 4 days, normalized to DMSO
  lysosomal Ca2+ content: reduced

## CC1(C)CC(=O)c2c(C(F)(F)F)nn(-c3ccc(C(N)=O)c(N[C@H]4CC[C@H](O)CC4)c3)c2C1 [SNX2112]
LE/Ly cholesterol
  clearance of cholesterol from LE/Ly: clearance of cholesterol from LE/Ly
